Results reported in patent US11446287B2, “Compounds and methods for EP300 or CBP modulation and indications therefor” (Opna Immuno-Oncology SA, priority 2019, dated 2022).
pIC50: −log10 of the molar value.

The compounds below were run against T1, Recombinant human EP300 containing the bromodomain (EP300-BD (1040-1161)) (Homo sapiens, UniProt Q09472) (assay: EP300 Alphascreen binding assay).
T1 construct: Recombinant human EP300 bromodomain (EP300-BD (1040-1161)); made in house; host or cells: E. coli BL21-CodonPlus (DE3), modified pET vector
T1 sequence (Q09472 1040-1161): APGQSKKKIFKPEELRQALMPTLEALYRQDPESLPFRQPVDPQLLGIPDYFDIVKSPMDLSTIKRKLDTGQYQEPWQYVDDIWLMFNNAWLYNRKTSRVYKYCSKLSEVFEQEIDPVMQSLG
Summary of the method: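 Displacement of a biotinylated acetyl-K56 histone H3 peptide from the N-His bromodomain construct (1040-1161) measured by AlphaScreen proximity, beads at 7.5 μg/ml final, read 60 min after addition. Protein, peptide and compound first incubated 1 h at room temperature, pH 7.5 HEPES buffer; IC50 by four-parameter logistic fit.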

How did the pIC50 turn out when CCOc1cc(C(=O)O)nc(OCC)c1-c1cn(C2CCN(S(C)(=O)=O)CC2)c2ncc(-c3c(C)noc3C)cc12 [P-0435, 5-(5-(3,5-dimethylisoxazol-4-yl)-1-(1-(methylsulfonyl)piperidin-4-yl)-1H-pyrrolo[2,3-b]pyridin-3-yl)-4,6-diethoxypicolinic acid] was run?
Its pIC50 is 6.00 to 10.00.

How did the pIC50 turn out when Cc1noc(C)c1-c1cnc2c(c1)c(-c1ccc(CC(=O)O)cc1)cn2-c1ccc(F)cc1F [P-0438, 2-(4-(1-(2,4-difluorophenyl)-5-(3,5-dimethylisoxazol-4-yl)-1H-pyrrolo[2,3-b]pyridin-3-yl)phenyl)acetic acid] was run?
The pIC50 was 6.00 to 10.00.

Cc1noc(C)c1-c1cnc2c(c1)c(-c1c(F)cc(C(=O)O)cc1OC1CC1)cn2C1CCOCC1 [P-0397, 3-cyclopropoxy-4-(5-(3,5-dimethylisoxazol-4-yl)-1-(tetrahydro-2H-pyran-4-yl)-1H-pyrrolo[2,3-b]pyridin-3-yl)-5-fluorobenzoic acid] was tested. Which pIC50 did it give?
The pIC50 was 6.00 to 10.00.

Cc1noc(C)c1-c1cnc2c(c1)c(C1CCC(C(=O)O)CC1)cn2-c1ccc(F)cc1F (stereo not drawn) [P-0434, 4-(1-(2,4-difluorophenyl)-5-(3,5-dimethylisoxazol-4-yl)-1H-pyrrolo[2,3-b]pyridin-3-yl)cyclohexane-1-carboxylic acid] was tested. Which pIC50 did it give?
The pIC50 was 6.00 to 10.00.

With Cc1noc(C)c1-c1cnc2c(c1)c(-c1ccc(C(=O)O)cc1OC(C)C)cn2C1(C)CCOCC1 [P-0403, 4-(5-(3,5-dimethylisoxazol-4-yl)-1-(4-methyltetrahydro-2H-pyran-4-yl)-1H-pyrrolo[2,3-b]pyridin-3-yl)-3-isopropoxybenzoic acid] as the compound, how does the pIC50 read?
The pIC50 was 6.00 to 10.00.

How did the pIC50 turn out when Cc1noc(C)c1-c1cnc2c(c1)c(-c1ccnc(C(=O)O)c1)cn2C(C1CC1)C1CC1 [P-0041, 4-(1-(dicyclopropylmethyl)-5-(3,5-dimethylisoxazol-4-yl)-1H-pyrrolo[2,3-b]pyridin-3-yl)picolinic acid] was run?
The pIC50 was 6.00 to 10.00.

How did the pIC50 turn out when Cc1cc(C(=O)O)cc(OC(C)C)c1-c1cn(C2CCOCC2)c2ncc(-c3c(C)noc3C)cc12 [P-0402, 4-(5-(3,5-dimethylisoxazol-4-yl)-1-(tetrahydro-2H-pyran-4-yl)-1H-pyrrolo[2,3-b]pyridin-3-yl)-3-isopropoxy-5-methylbenzoic acid] was run?
The pIC50 was 6.00 to 10.00.

How did the pIC50 turn out when CCOc1cc(C(=O)O)nc(OCC)c1-c1cn(-c2cn(C(F)F)nc2C)c2ncc(-c3c(C)noc3C)cc12 [P-0429, 5-(1-(1-(difluoromethyl)-3-methyl-1H-pyrazol-4-yl)-5-(3,5-dimethylisoxazol-4-yl)-1H-pyrrolo[2,3-b]pyridin-3-yl)-4,6-diethoxypicolinic acid] was run?
Its pIC50 is 6.00 to 10.00.

How did the pIC50 turn out when Cc1noc(C)c1-c1cnc2c(c1)c(-c1ccc(C(=O)O)cc1OC(C)C)cn2C1(C)CCOC1 (stereo not drawn) [P-0407, 4-(5-(3,5-dimethylisoxazol-4-yl)-1-(3-methyltetrahydrofuran-3-yl)-1H-pyrrolo[2,3-b]pyridin-3-yl)-3-isopropoxybenzoic acid] was run?
The pIC50 was 6.00 to 10.00.

How did the pIC50 turn out when CCOc1cc(C(=O)O)nc(OCC)c1-n1cc(-c2ccc(F)cc2F)c2ncc(-c3c(C)noc3C)cc21 [P-0431, 5-(3-(2,4-difluorophenyl)-6-(3,5-dimethylisoxazol-4-yl)-1H-pyrrolo[3,2-b]pyridin-1-yl)-4,6-diethoxypicolinic acid] was run?
Its pIC50 is 6.00 to 10.00.

How did the pIC50 turn out when Cc1noc(C)c1-c1cnc2c(c1)c(-c1c(F)cc(C(=O)O)cc1OC1CCC1)cn2C1CCOCC1 [P-0410, 3-cyclobutoxy-4-(5-(3,5-dimethylisoxazol-4-yl)-1-(tetrahydro-2H-pyran-4-yl)-1H-pyrrolo[2,3-b]pyridin-3-yl)-5-fluorobenzoic acid] was run?
Its pIC50 is 6.00 to 10.00.

How did the pIC50 turn out when Cc1noc(C)c1-c1cnc2c(c1)c(-c1ccc(C(=O)O)cc1OC(F)(F)F)cn2-c1ccc(=O)n(C)c1 [P-0399, 4-(5-(3,5-dimethylisoxazol-4-yl)-1-(1-methyl-6-oxo-1,6-dihydropyridin-3-yl)-1H-pyrrolo[2,3-b]pyridin-3-yl)-3-(trifluoromethoxy)benzoic acid] was run?
The pIC50 was 6.00 to 10.00.

How did the pIC50 turn out when Cc1noc(C)c1-c1cnc2c(c1)c(-c1ccnc(C(=O)O)c1)cn2Cc1ccccn1 [P-0044, 4-(5-(3,5-dimethylisoxazol-4-yl)-1-(pyridin-2-ylmethyl)-1H-pyrrolo[2,3-b]pyridin-3-yl)picolinic acid] was run?
Its pIC50 is 6.00 to 10.00.

How did the pIC50 turn out when Cc1noc(C)c1-c1cnc2c(c1)c(-c1cnn(CC(C)(C)O)c1)cn2C(c1ccccn1)C1CCCC1 (stereo not drawn) [P-0037, 1-(4-(1-(cyclopentyl(pyridin-2-yl)methyl)-5-(3,5-dimethylisoxazol-4-yl)-1H-pyrrolo[2,3-b]pyridin-3-yl)-1H-pyrazol-1-yl)-2-methylpropan-2-ol] was run?
The pIC50 was 5.10 to 6.00.

How did the pIC50 turn out when COc1ccc(CC(=O)O)cc1-c1cn(-c2ccc(F)cc2F)c2ncc(-c3c(C)noc3C)cc12 [P-0443, 2-(3-(1-(2,4-difluorophenyl)-5-(3,5-dimethylisoxazol-4-yl)-1H-pyrrolo[2,3-b]pyridin-3-yl)-4-methoxyphenyl)acetic acid] was run?
The pIC50 was 6.00 to 10.00.

With CCOc1cc(C(=O)O)c(F)cc1-c1cn(C2CCN(CCC#N)CC2)c2ncc(-c3c(C)noc3C)cc12 [P-0446, 4-(1-(1-(2-cyanoethyl)piperidin-4-yl)-5-(3,5-dimethylisoxazol-4-yl)-1H-pyrrolo[2,3-b]pyridin-3-yl)-5-ethoxy-2-fluorobenzoic acid] as the compound, how does the pIC50 read?
The pIC50 was 6.00 to 10.00.

COC(=O)c1cc(Cl)c(-c2cn(-c3ccc(C4CC4)nc3)c3ncc(-c4c(C)noc4C)cc23)c(OC(F)(F)F)c1 [P-0440, methyl 3-chloro-4-(1-(6-cyclopropylpyridin-3-yl)-5-(3,5-dimethylisoxazol-4-yl)-1H-pyrrolo[2,3-b]pyridin-3-yl)-5-(trifluoromethoxy)benzoate] was tested. Which pIC50 did it give?
The pIC50 was 5.10 to 6.00.

CCc1onc(C)c1-c1cnc2c(c1)c(-c1ccc(C(=O)O)cc1OC(F)(F)F)cn2C1CCOCC1 [P-0401, 4-(5-(5-ethyl-3-methylisoxazol-4-yl)-1-(tetrahydro-2H-pyran-4-yl)-1H-pyrrolo[2,3-b]pyridin-3-yl)-3-(trifluoromethoxy)benzoic acid] was tested. Which pIC50 did it give?
The pIC50 was 6.00 to 10.00.

Cc1noc(C)c1-c1cnc2c(c1)c(-c1cnn(C(C)(C)C(=O)O)c1)cn2C(c1ccccn1)C1CCCC1 (stereo not drawn) [P-0035, 2-(4-(1-(cyclopentyl(pyridin-2-yl)methyl)-5-(3,5-dimethylisoxazol-4-yl)-1H-pyrrolo[2,3-b]pyridin-3-yl)-1H-pyrazol-1-yl)-2-methylpropanoic acid] was tested. Which pIC50 did it give?
The pIC50 was 6.00 to 10.00.

Cc1noc(C)c1-c1cnc2c(c1)c(-c1cccc(C(=O)O)c1)cn2CC1CC1 [P-0050, 3-(1-(cyclopropylmethyl)-5-(3,5-dimethylisoxazol-4-yl)-1H-pyrrolo[2,3-b]pyridin-3-yl)benzoic acid] was tested. Which pIC50 did it give?
The pIC50 was 6.00 to 10.00.

How did the pIC50 turn out when CCc1noc(C)c1-c1cnc2c(c1)c(-c1ccc(C(=O)O)cc1OC(F)(F)F)cn2C1CCOCC1 [P-0400, 4-(5-(3-ethyl-5-methylisoxazol-4-yl)-1-(tetrahydro-2H-pyran-4-yl)-1H-pyrrolo[2,3-b]pyridin-3-yl)-3-(trifluoromethoxy)benzoic acid] was run?
The pIC50 was 6.00 to 10.00.

With CCOc1nc(C(=O)O)c(Cl)cc1-c1cn([C@H]2CCOC2)c2ncc(-c3c(C)noc3C)cc12 [P-0406, (S)-3-chloro-5-(5-(3,5-dimethylisoxazol-4-yl)-1-(tetrahydrofuran-3-yl)-1H-pyrrolo[2,3-b]pyridin-3-yl)-6-ethoxypicolinic acid] as the compound, how does the pIC50 read?
Its pIC50 is 6.00 to 10.00.

With COC(=O)c1cc(-c2cn(C(c3ccccn3)C3CCCC3)c3ncc(-c4c(C)noc4C)cc23)ccn1 (stereo not drawn) [P-0040, methyl 4-(1-(cyclopentyl(pyridin-2-yl)methyl)-5-(3,5-dimethylisoxazol-4-yl)-1H-pyrrolo[2,3-b]pyridin-3-yl)picolinate] as the compound, how does the pIC50 read?
Its pIC50 is 6.00 to 10.00.

With CCOc1cc(C(=O)O)nc(OCC)c1-c1cn(-c2cn(CC)nc2C)c2ncc(-c3c(C)noc3C)cc12 [P-0430, 5-(5-(3,5-dimethylisoxazol-4-yl)-1-(1-ethyl-3-methyl-1H-pyrazol-4-yl)-1H-pyrrolo[2,3-b]pyridin-3-yl)-4,6-diethoxypicolinic acid] as the compound, how does the pIC50 read?
Its pIC50 is 6.00 to 10.00.

CCOc1cc(C(=O)O)c(F)cc1-c1cn(C2CCN(C(=O)C(C)(C)C)CC2)c2ncc(-c3c(C)noc3C)cc12 [P-0445, 4-(5-(3,5-dimethylisoxazol-4-yl)-1-(1-pivaloylpiperidin-4-yl)-1H-pyrrolo[2,3-b]pyridin-3-yl)-5-ethoxy-2-fluorobenzoic acid] was tested. Which pIC50 did it give?
Its pIC50 is 6.00 to 10.00.

With Cc1noc(C)c1-c1cnc2c(c1)c(-c1ccc(CC(=O)O)cc1F)cn2-c1ccc(F)cc1F [P-0437] as the compound, how does the pIC50 read?
Its pIC50 is 6.00 to 10.00.

With Cc1noc(C)c1-c1cnc2c(c1)c(-c1c(Cl)cc(C(=O)O)cc1OC(C)C)cn2-c1cnc(C2CC2)nc1 [P-0393, 3-chloro-4-(1-(2-cyclopropylpyrimidin-5-yl)-5-(3,5-dimethylisoxazol-4-yl)-1H-pyrrolo[2,3-b]pyridin-3-yl)-5-isopropoxybenzoic acid] as the compound, how does the pIC50 read?
Its pIC50 is 6.00 to 10.00.

CCOc1cc(C(=O)O)nc(OCC)c1-c1cn(-c2ncccc2C(N)=O)c2ncc(-c3c(C)noc3C)cc12 [P-0422, 5-(1-(3-carbamoylpyridin-2-yl)-5-(3,5-dimethylisoxazol-4-yl)-1H-pyrrolo[2,3-b]pyridin-3-yl)-4,6-diethoxypicolinic acid] was tested. Which pIC50 did it give?
The pIC50 was 6.00 to 10.00.

How did the pIC50 turn out when CCOc1cc(C(=O)O)ncc1-c1cn(C(C2CC2)C2CC2)c2ncc(-c3c(C)noc3C)cc12 [P-0427, 5-(1-(dicyclopropylmethyl)-5-(3,5-dimethylisoxazol-4-yl)-1H-pyrrolo[2,3-b]pyridin-3-yl)-4-ethoxypicolinic acid] was run?
The pIC50 was 6.00 to 10.00.

CCOc1nc(C(=O)O)c(Cl)cc1-c1cn(C2CCOCC2)c2ncc(-c3c(C)noc3C)cc12 [P-0398, 3-chloro-5-(5-(3,5-dimethylisoxazol-4-yl)-1-(tetrahydro-2H-pyran-4-yl)-1H-pyrrolo[2,3-b]pyridin-3-yl)-6-ethoxypicolinic acid] was tested. Which pIC50 did it give?
Its pIC50 is 6.00 to 10.00.
